Columns and labels:
[1] = test system: Bax, Bcl-2, cytochrome C and caspase-3; assay: Western blot of apoptosis-related proteins; type: cell-based, human; details: HepG2, 72 h, concentration-dependent
Description: HepG2 cells were incubated with different doses of 6k for 72 h. Cells were collected, centrifuged, and washed two times with ice-cold PBS. The pellet was then re-suspended in lysis buffer. After the cells were lysed on ice for 20 min, lysates were centrifuged at 13000 g at 4 °C for 15 min. The protein concentration in the supernatant was determined using the BCA protein assay reagents. Equal amounts of protein (20 μg) were resolved using sodium dodecyl sulfate-polyacrylamide gel electrophoresis (SDS-PAGE) (10–12% acrylamide gels) and transferred to PVDF membrane. Membranes were blocked for 1 h at room temperature. Membranes were then incubated with primary antibodies against p-cdc25c, cdc2, cyclin B1, Bax, Bcl-2, cytochrome C, caspase-3, VDAC1 and β-actin, the membrane being gently rotated overnight at 4 °C. The bound antibodies were detected using horseradish peroxidase (HRP)-conjugated second antibodies and visualised by the enhanced chemiluminescent reagent.

[2] = test system: c-MYC G4 DNA (FPu18T); assay: FRET-melting assay, FPu18T (c-MYC G4 DNA model); details: 2 μM compounds
[3] = test system: Huh-7 cells; assay: In vitro antiproliferative MTT assay, Huh-7 cells; type: cell-based, human; details: Homo sapiens, 72 h, mean ± SD (n = 3)
Description: (§1) HepG2, Sk-Hep-1, Huh-7, Hep3B and L-02 cells were purchased from Nanjing Key Gen Biotech Co. Ltd. (Nanjing, China). The cytotoxicity of test compounds was determined using an MTT assay. Briefly, the cell lines were incubated at 37 °C in a humidified 5% CO2 incubator for 24 h in 96-microwell plates. After medium removal, 100 μL of culture medium with 0.1% DMSO containing test compounds at different concentrations was added to each well and incubated at 37 °C for another 72 h. The MTT (5 mg/mL in PBS) was added and incubated for another 4 h, the optical density was detected with a microplate reader at 490 nm. The IC50 values were calculated according to the dose-dependent curves. All the experiments were repeated in at least three independent experiments.

[4] = test system: HepG2 cells; assay: Mitochondrial membrane potential (MMP) measurement with JC-1; type: cell-based, human; details: 72 h (control 1.90%)
Description: HepG2 cells were incubated with 6k as described above. After incubation for 72 h, the cells were washed in PBS and resuspended in 500 μL JC-1 incubation buffer at 37 °C for 15 min. Then, […] was immediately assessed for a red fluorescence using a microplate reader (ELx80, Bio-Tek, USA). The fluorescent signal of monomers was measured with an excitation wavelength of 488 nm. The percentage of cells with healthy or collapsed mitochondrial membrane potentials was monitored by flow cytometry analysis (BectoneDickinson, San Jose, CA, USA).

[5] = test system: normal hepatocytes L-02; assay: MTT cytotoxicity assay, normal hepatocytes L-02; type: cell-based; details: Hepatocyte; normal hepatocytes L-02, MTT, 72 h, mean ± SD (n = 3)
Description: as §1

[6] = LWP coefficient (log D) measurement, shake flask; type: physicochemical; details: pH 7.4
Description: Berberine, 3c and 6k of 1 mg were dissolved in three centrifugal tubes (5 ml) containing phosphate buffer (pH 7.4)-saturated 1-octanol solution (2 mL), followed by the addition of 1-octanol saturated PBS (2 mL). Each tube was vigorously mixed for 1 min and then shaken for 6 h at a speed of 1000 rpm at 37 °C. The mixtures were then centrifuged. 1 mL of 1-octanol phase and 1 mL of buffer were separately collected. Each phase was diluted to a suitable concentration and analysed by HPLC (Shimadzu DGU-20A3R) on a Shimadzu-GL WondaSil C18-WR column (λ = 254 nm) with an eluent of methanol/water (65/35, v/v, 1.0 ml/min). The log D value for each compound was calculated from the ratio of the peak areas using the following equation: Log D = log (Areaoct × x/Areabuf × y). x, y is the dilution factor.

Q: With CCCCCCCCc1c2[n+](cc3c(OCCCCCCCCN4CCN(C)CC4)c(OC)ccc13)CCc1cc3c(cc1-2)OCO3.[Br-] [Compound 6k, 10-Methoxy-9-((8–(4-methylpiperazin-1-yl)octyl)oxy)-13-octyl-5,6-dihydro-[1,3]dioxolo[4,5-g]isoquinolino[3,2-a]isoquinolin-7-ium bromide] as the molecule, how does the Bax expression [1] read?
A: Its Bax expression is “upregulated Bax expression”.

Q: What about the Bcl-2 expression [1] of the same molecule?
A: The Bcl-2 expression was “downregulated Bcl-2 expression”.

Q: And the caspase-3 [1]?
A: The caspase-3 was “activated caspase-3”.

Q: What about the “cytochrome C release” value [1] of the same molecule?
A: Its value is “promoted cytochrome C release”.

Q: And the “ΔTm(A) = Tm(FPu18T + compound) - Tm(FPu18T)” value [2]?
A: Its value is 13.8 °C.

Q: And the IC50 [3]?
A: The IC50 was 0.62 ± 0.04 µM.

Q: What about the “percentage of cells with green fluorescence (JC-1)” value ([4]; HepG2, 0.25 μM) of the same molecule?
A: Its value is 10.33%.

Q: And the “percentage of cells with green fluorescence (JC-1)” value ([4]; HepG2, 1.0 μM)?
A: The value was 37.52%.

Q: What about the IC50 [5] of the same molecule?
A: Its IC50 is 7.68 ± 0.67 µM.

Q: And the logD [6]?
A: The logD was 3.87.
